Assay results published in patent US11147763B2, “Vaginal ring with visual indication of use” (RESEARCH TRIANGLE INSTITUTE, priority 2015, dated 2021).

Key:
[1] = Screen of pH-based color changing tracers in biocompatible-grade silicone material; assay type: physicochemical; settings: biocompatible-grade silicone placed into an aqueous environment
Method: For the second approach, research efforts focused on developing systems for analyzing biological constituents that diffuse into the ring causing a pH change (FIG. 2B, ii). To accomplish this testing strategy, a variety of pH-based color changing formulations were evaluated in biocompatible-grade silicone material. […] This material screen also facilitated the abandonment of tracers with poor performance, such as highly hydrophilic molecular families with high expulsion tendencies.

[2] = Diffusion of indicator out of silicone (PDMS) vaginal ring into surrounding solution; assay type: physicochemical; settings: aqueous conditions, over the course of one week (FIG. 3B)
Method: Two different approaches were tested to assess the usage of the vaginal ring (FIG. 2A and FIG. 2B). First, a system with signal change resultant of indicator diffusion (i) out of the ring was tested (FIG. 2A).
In these cases, silicone (polydimethyl siloxane, PDMS) was utilized in combination with rhodamine-B, fluorescein, and a rhodamine-B/Brilliant Blue combination. (FIG. 3A).

| Structure (SMILES) | leaching of tracer from the silicone material [1] | release of indicator from the silicone material [2] |
| --- | --- | --- |
| O=C1c2ccccc2C(=O)c2c1ccc(O)c2O [Alazarin] | readily leached from the silicone material |  |
| CN(C)c1ccc(/N=N/c2ccccc2C(=O)O)cc1 [Methyl Red] | readily leached from the silicone material |  |
| CCN(CC)c1ccc2c(-c3ccccc3C(=O)O)c3ccc(=[N+](CC)CC)cc-3oc2c1.[Cl-] [rhodamine-B] |  | readily released from the silicone material |
